Experimental data from patent publication US10669269B2, “Substituted N-(1H-indazol-4-yl)imidazo[1,2-a]pyridine-3-carboxamide compounds as type III receptor tyrosine kinase inhibitors” (ARRAY BIOPHARMA INC., priority 2010, dated 2020).
Counter-ions that a name gives are not always drawn.

How the values were obtained:
PDGFR beta = target: T1, PDGFR beta (Homo sapiens, UniProt P09619); assay: Phospho PDGFR LICOR Cell Assay (Example B); assay type: cell-based; settings: averaged IC50; PDGFR beta phosphorylation in HS27 human fibroblast cell line, PDGF-BB stimulation 10 minutes, normalized to total ERK
T1 construct: endogenous in cells; host or cells: HS27 human fibroblast cell line
Description: Compounds were screened for inhibition of PDGFR beta phosphorylation in the HS27 human fibroblast cell line. Cells were seeded into a 96 well tissue culture plate, then incubated overnight in a 37° C./5% CO2 incubator. The following day, cells were treated for one hour with test compound dilutions. After stimulation with PDGF-BB ligand for 10 minutes, cells were washed with PBS and fixed in 3.7% formaldehyde in PBS for 10 minutes. This was followed by washing in PBS/0.2% Triton X-100 and permeabilizing in 100% MeOH for 10 minutes. Cells were incubated in blocking buffer for 1 hour. Antibodies to phosphorylated PDGFRβ and total ERK were added to the cells and incubated for 3 hours. After washing with PBS/0.2% Triton X-100, the cells were incubated with fluorescently-labeled secondary antibodies for an additional hour. Cells were then washed with PBS and analyzed for fluorescence at both wavelengths using the Odyssey Infrared Imaging System (LI-COR Biosciences). Phosphorylated PDGFR signal was normalized to total ERK signal. A standard 4-parameter logistic model was fit to the inhibitor dose response curves, with the IC50 being defined as the concentration of inhibitor giving 50 percent of control (POC).

cFMS = target: T2, cFMS (Homo sapiens, UniProt P07333); assay: cFMS Cell-Based Assay (Example C); settings: averaged IC50; phospho-cFMS in THP-1 cells stimulated with 250 ng/mL recombinant human MCSF; read-out: cFMS Cell ELISA IC50
T2 construct: THP-1 cells (human acute monocytic leukemia cell line) were serum-starved for 4 hours; endogenous in cells; host or cells: THP-1 cells (human acute monocytic leukemia cell line)
Description: The ability of compounds of Formula I to inhibit cFMS activation in cells was determined by the following assay. THP-1 cells (human acute monocytic leukemia cell line) were serum-starved for 4 hours prior to treatment with compounds of Formula I for 1 hour. The concentration of compounds of Formula I was varied over a 9-point, 3-fold dilution series with 5,000 nM typically being the highest dose. Cell culture and treatment were carried out in a humidified 37° C., 5% CO2 incubator. Treated cells were stimulated with 250 ng/mL recombinant human MCSF for 1 minute to induce activation of cFMS. Cells were lysed in a manner which preserves phosphoproteins, and the lysate was analyzed by ELISA (R&D Systems, Human Phospho-M-CSF R DuoSet IC DYC3268), in which total cFMS protein in the lysate is captured and phosphotyrosine residues of cFMS are detected. A standard curve, made using purified phospho-M-CSF R protein, was used to quantify phospho-c-FMS in compound-treated wells. A standard 4-parameter logistic model was fit to the inhibitor dose response curves, with the IC50 being defined as the concentration of inhibitor giving 50 percent of control (POC).

c-KIT = target: T3, c-KIT (Homo sapiens, UniProt P10721); assay: c-KIT Cell-Based Assay (Example D); settings: averaged IC50; phospho-c-KIT in M-07e cells stimulated with 150 ng/ml recombinant human SCF; read-out: cKIT Cell ELISA IC50
T3 construct: M-07e cells (human acute megakaryoblastic leukemia cell line) were serum-starved for 4 hours; endogenous in cells; host or cells: M-07e cells (human acute megakaryoblastic leukemia cell line)
Description: The ability of compounds of Formula I to inhibit c-KIT activation in cells was determined by the following assay. M-07e cells (human acute megakaryoblastic leukemia cell line) were serum-starved for 4 hours prior to treatment with compounds of Formula I for 1 hour. The concentration of compounds of Formula I was varied over a 9-point, 3-fold dilution series with 5,000 nM typically being the highest dose. Cell culture and treatment were carried out in a humidified 37° C., 5% CO2 incubator. Treated cells were stimulated with 150 ng/ml recombinant human SCF for 4 minutes to induce activation of c-KIT. Cells were lysed in a manner which preserves phosphoproteins, and the lysate was analyzed by ELISA (R&D Systems, Human Phospho-SCF R DuoSet IC DYC3527), in which total c-KIT protein in the lysate is captured and phosphotyrosine residues of c-Kit are detected. A standard curve, made using purified phospho-SCF R protein, was used to quantify phospho-c-KIT in compound-treated wells. A standard 4-parameter logistic model was fit to the inhibitor dose response curves, with the IC50 being defined as the concentration of inhibitor giving 50 percent of control (POC).

T2 sequence (P07333 20-972): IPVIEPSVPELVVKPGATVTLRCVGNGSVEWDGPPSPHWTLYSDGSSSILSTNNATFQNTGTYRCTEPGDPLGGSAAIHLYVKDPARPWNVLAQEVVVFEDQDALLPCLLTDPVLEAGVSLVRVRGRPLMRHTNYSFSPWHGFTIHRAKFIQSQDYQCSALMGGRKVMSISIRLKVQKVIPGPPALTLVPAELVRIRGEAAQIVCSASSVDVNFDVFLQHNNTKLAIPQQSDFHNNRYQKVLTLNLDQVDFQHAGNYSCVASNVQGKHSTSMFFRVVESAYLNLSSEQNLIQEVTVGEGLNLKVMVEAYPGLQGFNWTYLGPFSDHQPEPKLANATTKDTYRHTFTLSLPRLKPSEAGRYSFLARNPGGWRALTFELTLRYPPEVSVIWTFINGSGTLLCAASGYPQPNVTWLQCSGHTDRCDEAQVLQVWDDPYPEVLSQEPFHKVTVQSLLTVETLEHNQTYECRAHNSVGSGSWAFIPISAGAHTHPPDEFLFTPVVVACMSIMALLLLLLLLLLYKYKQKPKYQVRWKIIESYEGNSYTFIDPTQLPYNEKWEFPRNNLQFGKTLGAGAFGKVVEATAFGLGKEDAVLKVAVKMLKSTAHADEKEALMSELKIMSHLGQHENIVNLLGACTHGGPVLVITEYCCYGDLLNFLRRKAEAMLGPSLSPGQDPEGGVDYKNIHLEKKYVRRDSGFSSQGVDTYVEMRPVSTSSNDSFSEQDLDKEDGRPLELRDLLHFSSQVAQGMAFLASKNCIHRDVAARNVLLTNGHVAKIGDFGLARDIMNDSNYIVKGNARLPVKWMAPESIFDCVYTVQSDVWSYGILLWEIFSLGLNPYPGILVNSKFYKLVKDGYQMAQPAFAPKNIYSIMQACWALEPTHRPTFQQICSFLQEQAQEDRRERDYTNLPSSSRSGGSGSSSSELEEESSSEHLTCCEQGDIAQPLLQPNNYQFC
T3 sequence (P10721 26-976): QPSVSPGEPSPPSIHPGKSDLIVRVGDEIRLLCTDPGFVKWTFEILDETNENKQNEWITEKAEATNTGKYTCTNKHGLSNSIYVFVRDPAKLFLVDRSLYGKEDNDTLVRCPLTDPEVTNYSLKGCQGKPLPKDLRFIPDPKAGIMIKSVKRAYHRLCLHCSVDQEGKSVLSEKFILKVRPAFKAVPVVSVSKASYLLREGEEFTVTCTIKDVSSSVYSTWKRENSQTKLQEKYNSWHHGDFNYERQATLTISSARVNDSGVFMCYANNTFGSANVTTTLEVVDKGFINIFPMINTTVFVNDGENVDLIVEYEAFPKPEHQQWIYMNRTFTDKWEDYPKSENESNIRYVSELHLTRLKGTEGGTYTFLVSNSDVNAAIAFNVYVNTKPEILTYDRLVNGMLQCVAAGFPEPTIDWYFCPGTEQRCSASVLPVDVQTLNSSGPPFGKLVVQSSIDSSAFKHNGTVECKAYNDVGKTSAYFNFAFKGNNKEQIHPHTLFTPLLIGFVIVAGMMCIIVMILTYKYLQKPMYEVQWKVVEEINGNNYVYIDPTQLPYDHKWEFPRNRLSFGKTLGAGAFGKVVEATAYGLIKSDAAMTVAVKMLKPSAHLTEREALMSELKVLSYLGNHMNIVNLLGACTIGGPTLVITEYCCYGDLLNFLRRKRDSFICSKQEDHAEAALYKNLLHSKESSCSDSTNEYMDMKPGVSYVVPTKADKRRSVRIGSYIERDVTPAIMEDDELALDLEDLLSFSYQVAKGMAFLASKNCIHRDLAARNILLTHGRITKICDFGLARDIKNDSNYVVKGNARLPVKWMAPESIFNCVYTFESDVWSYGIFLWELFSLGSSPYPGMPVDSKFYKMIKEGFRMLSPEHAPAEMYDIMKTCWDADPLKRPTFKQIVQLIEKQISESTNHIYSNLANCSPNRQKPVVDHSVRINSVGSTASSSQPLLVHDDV
T1 sequence (P09619 33-1106): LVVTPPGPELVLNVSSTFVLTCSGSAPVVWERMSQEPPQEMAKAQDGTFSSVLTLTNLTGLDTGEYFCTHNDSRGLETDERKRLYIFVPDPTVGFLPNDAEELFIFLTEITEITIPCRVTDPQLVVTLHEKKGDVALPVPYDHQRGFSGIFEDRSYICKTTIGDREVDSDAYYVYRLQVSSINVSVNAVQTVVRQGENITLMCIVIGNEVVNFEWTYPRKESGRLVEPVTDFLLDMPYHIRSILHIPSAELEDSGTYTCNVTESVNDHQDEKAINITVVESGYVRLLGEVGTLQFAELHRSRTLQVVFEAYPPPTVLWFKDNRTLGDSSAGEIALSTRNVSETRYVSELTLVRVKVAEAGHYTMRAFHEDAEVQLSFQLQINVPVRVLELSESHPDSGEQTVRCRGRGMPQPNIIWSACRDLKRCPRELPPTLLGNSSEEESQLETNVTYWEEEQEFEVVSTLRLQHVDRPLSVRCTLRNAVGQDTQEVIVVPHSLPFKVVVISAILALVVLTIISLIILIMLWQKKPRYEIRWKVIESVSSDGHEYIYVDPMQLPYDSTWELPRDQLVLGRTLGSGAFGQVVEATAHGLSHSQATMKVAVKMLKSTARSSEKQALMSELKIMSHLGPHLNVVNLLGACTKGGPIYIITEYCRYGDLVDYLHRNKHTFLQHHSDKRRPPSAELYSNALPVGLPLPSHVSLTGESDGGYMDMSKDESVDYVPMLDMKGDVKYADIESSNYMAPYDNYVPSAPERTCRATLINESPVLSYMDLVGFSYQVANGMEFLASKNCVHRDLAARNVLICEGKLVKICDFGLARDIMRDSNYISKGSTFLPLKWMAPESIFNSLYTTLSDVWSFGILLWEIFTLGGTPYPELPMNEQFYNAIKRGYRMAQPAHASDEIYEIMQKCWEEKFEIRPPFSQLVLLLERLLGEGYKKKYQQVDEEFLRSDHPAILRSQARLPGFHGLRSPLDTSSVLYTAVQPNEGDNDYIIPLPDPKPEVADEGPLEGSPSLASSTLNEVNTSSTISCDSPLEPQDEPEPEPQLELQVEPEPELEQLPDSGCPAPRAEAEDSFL

Compound	IC50 (PDGFR beta) [nM]	IC50 (cFMS) [nM]	IC50 (c-KIT) [nM]
COCCOc1ccn2c(C(=O)Nc3cccc4c3cnn4Cc3cccc(C)c3)cnc2c1 [Example 143, 7-(2-methoxyethoxy)-N-(1-(3-methylbenzyl)-1H-indazol-4-yl)imidazo[1,2-a]pyridine-3-carboxamide]	12	4.8	58.9
Cc1nn(Cc2cc(C)n(C(C)C)n2)c2cccc(NC(=O)c3cnc4cc(OCCN5CCN(C)CC5)ccn34)c12 [Example 67, N-(1-((1-isopropyl-5-methyl-1H-pyrazol-3-yl)methyl)-3-methyl-1H-indazol-4-yl)-7-(2-(4-methylpiperazin-1-yl)ethoxy)imidazo[1,2-a]pyridine-3-carboxamide]	10.3	10	60.6
COCCOc1ccn2c(C(=O)Nc3cccc4c3cnn4Cc3cccc(C(=O)OC)c3)cnc2c1 [Example 93, Methyl 3-((4-(7-(2-methoxyethoxy)imidazo[1,2-a]pyridine-3-carboxamido)-1H-indazol-1-yl)methyl)benzoate]	6	842	6.4
COCCOc1ccn2c(C(=O)Nc3cccc4c3cnn4CC3CCCNC3)cnc2c1 (stereo not drawn) [Example 131, 7-(2-methoxyethoxy)-N-(1-(piperidin-3-ylmethyl)-1H-indazol-4-yl)imidazo[1,2-a]pyridine-3-carboxamide hydrochloride]	682	993	5000
Cc1cccc(Cn2nc(C)c3c(NC(=O)c4cnc5cc(OCCN6CCOCC6)ccn45)cccc32)n1 [Example 59, N-(3-methyl-1-((6-methylpyridin-2-yl)methyl)-1H-indazol-4-yl)-7-(2-morpholinoethoxy)imidazo[1,2-a]pyridine-3-carboxamide]	19.3	19.4	1490
O=C(Nc1cccc2c1cnn2Cc1ccccc1)c1cnc2cc(-c3cn[nH]c3)ccn12 [Example 145, N-(1-benzyl-1H-indazol-4-yl)-7-(1H-pyrazol-4-yl)imidazo[1,2-a]pyridine-3-carboxamide]	13	20.5	55.9
O=C(Nc1cccc2c1cnn2Cc1ccccc1)c1cnc2ccccn12 [Example 126, N-(1-benzyl-1H-indazol-4-yl)imidazo[1,2-a]pyridine-3-carboxamide]	34.5	27.4	22.2
Cc1cccc(Cn2nc(C)c3c(NC(=O)c4cnc5ccccn45)cccc32)n1 [Example 61, N-(3-methyl-1-((6-methylpyridin-2-yl)methyl)-1H-indazol-4-yl)imidazo[1,2-a]pyridine-3-carboxamide]	222	58.1	527
CN1CCN(CCOc2ccn3c(C(=O)Nc4cccc5c4cnn5Cc4cn(C)cn4)cnc3c2)CC1 [Example 106, N-(1-((1-methyl-1H-imidazol-4-yl)methyl)-1H-indazol-4-yl)-7-(2-(4-methylpiperazin-1-yl)ethoxy)imidazo[1,2-a]pyridine-3-carboxamide dihydrochloride]	558	159	748
COC(=O)c1cccc(Cn2ncc3c(NC(=O)c4cnc5cc(OCCN6CCN(C)CC6)ccn45)cccc32)c1 [Example 96, Methyl 3-((4-(7-(2-(4-methylpiperazin-1-yl)ethoxy)imidazo[1,2-a]pyridine-3-carboxamido)-1H-indazol-1-yl)methyl)benzoate dihydrochloride]	14.6	115	3.8
COCCOc1ccn2c(C(=O)Nc3cccc4c3cnn4Cc3cccnc3)cnc2c1 [Example 121, 7-(2-methoxyethoxy)-N-(1-(pyridin-3-ylmethyl)-1H-indazol-4-yl)imidazo[1,2-a]pyridine-3-carboxamide]	13.3	20.9	73.1
Cc1nc(Cn2nc(C)c3c(NC(=O)c4cnc5cc(OCCN6CCN(C)CC6)ccn45)cccc32)cs1 [Example 88, N-(3-methyl-1-((2-methylthiazol-4-yl)methyl)-1H-indazol-4-yl)-7-(2-(4-methylpiperazin-1-yl)ethoxy)imidazo[1,2-a]pyridine-3-carboxamide]	180	15.6	510
Cc1ccc(Cn2nc(C)c3c(NC(=O)c4cnc5ccccn45)cccc32)cn1 [Example 81, N-(3-methyl-1-((6-methylpyridin-3-yl)methyl)-1H-indazol-4-yl)imidazo[1,2-a]pyridine-3-carboxamide]	6440	136	4440
COCCOc1ccn2c(C(=O)Nc3cccc4c3cnn4CC3CCOCC3)cnc2c1 [Example 113, 7-(2-methoxyethoxy)-N-(1-((tetrahydro-2H-pyran-4-yl)methyl)-1H-indazol-4-yl)imidazo[1,2-a]pyridine-3-carboxamide]	289	121	331
COCCOc1ccn2c(C(=O)Nc3cccc4c3cnn4Cc3ccc(C(F)(F)F)cc3)cnc2c1 [Example 120, 7-(2-methoxyethoxy)-N-(1-(4-(trifluoromethyl)benzyl)-1H-indazol-4-yl)imidazo[1,2-a]pyridine-3-carboxamide]	7.7	34.4	14.5
Cc1cccc(Cn2ncc3c(NC(=O)c4cnc5cc(OCCN6CCN(C)CC6)ccn45)ccc(Cl)c32)n1 [Example 101, N-(7-chloro-1-((6-methylpyridin-2-yl)methyl)-1H-indazol-4-yl)-7-(2-(4-methylpiperazin-1-yl)ethoxy)imidazo[1,2-a]pyridine-3-carboxamide trihydrochloride]	23.7	43.6	30.5
COCCOc1ccn2c(C(=O)Nc3cccc4c3cnn4Cc3ccccc3)cnc2c1 [Example 156, N-(1-benzyl-1H-indazol-4-yl)-7-(2-methoxyethoxy)imidazo[1,2-a]pyridine-3-carboxamide]	5.7	5.7	12.5
Cc1ccc(Cn2nc(C)c3c(NC(=O)c4cnc5cc(OCCN6CCN(C)CC6)ccn45)cccc32)cn1 [Example 85, N-(3-methyl-1-((6-methylpyridin-3-yl)methyl)-1H-indazol-4-yl)-7-(2-(4-methylpiperazin-1-yl)ethoxy)imidazo[1,2-a]pyridine-3-carboxamide]	401	10.4	303
Cc1cccc(Cn2nc(C)c3c(NC(=O)c4cnc5cc(OCCN6CCNCC6)ccn45)cccc32)n1 [Example 64, N-(3-methyl-1-((6-methylpyridin-2-yl)methyl)-1H-indazol-4-yl)-7-(2-(piperazin-1-yl)ethoxy)imidazo[1,2-a]pyridine-3-carboxamide]	94.1	9.7	1010
COCCOc1ccn2c(C(=O)Nc3c(Cl)cc(Cl)c4c3cnn4Cc3ccccc3)cnc2c1 [Example 136, N-(1-benzyl-5,7-dichloro-1H-indazol-4-yl)-7-(2-methoxyethoxy)imidazo[1,2-a]pyridine-3-carboxamide]	1000	20.7	54.1
COCCOc1ccn2c(C(=O)Nc3ccc(Cl)c4c3cnn4Cc3ccccc3)cnc2c1 [Example 135, N-(1-benzyl-7-chloro-1H-indazol-4-yl)-7-(2-methoxyethoxy)imidazo[1,2-a]pyridine-3-carboxamide]	362	228	396
